Laboratory results: patent US20240401144A2, “PRIMER-PROBE COMPOSITION, KIT, AND DETECTION METHOD” (ASCENTAWITS PHARMACEUTICALS, LTD., priority 2021, published 2024)
pIC50: −log10 of the molar value.

Assays:
ALL cell lines = experiment: Ex vivo cytotoxicity in ALL cell lines (summary); format: cell-based; conditions: Homo sapiens
Experimental: (§1) Leukemia cell lines were suspended in RPMI medium supplemented with FBS (Biosera), while ALL PDX cells were cultured in QBSF medium (Quality Biological Inc.,) supplemented with Flt-3 ligand (20 ng/ml, BioNovus Life Sciences) or IL7 (10-20 ng/ml, Jomar Life Research). Cells were inoculated according to the optimal cell density and incubated for 3h or overnight (37° C., 5% CO2). PDX cells and leukemia cell lines were treated with OBI-3424 ([…]) or medium control for 48 or 72 h, respectively. Viability was determined using Alamar Blue reduction assay or Cell Titer-Glo Luminescent Cell Viability Assay (Promega). The half-maximal inhibitory concentration (IC50) was used to calculate the interpolation of nonlinear regression curves by GraphPad Prism 7 software.
The expression levels of AKR1C3 protein was determined by Western blot analysis. The ex vivo cytotoxicity of OBI-3424 was determined using CellTiter-Glo assay and calculated as 50% maximum inhibitory concentration (IC50).

[1] = system: SNU-182 hepatocellular carcinoma cell line; experiment: Ex vivo proliferation assay, 96 h exposure; format: cell-based; conditions: Homo sapiens; SNU-182, 96 h of exposure; AKR1C3 protein Low; read-out: 3424 IC50
Experimental: (§2) Exponentially growing cells were inoculated. After 24 h, the test compound OBI-3424 was added. After addition of the test compound OBI-3424, plates were incubated in a standard tissue incubator at 37° C. for the indicated hours. At the end of the experiment, viable cells were detected using the CellTiter Glo (CTG) assay kit or AlamarBlue. Drug concentrations (IC50) resulting in 50% growth inhibition relative to untreated control were calculated using XLfit (IDBS, Boston, MA) or Prism 6 (GraphPad, San Diego, CA).
(§3) After exposing the hepatocellular carcinoma cell lines to compound OBI-3424 for 96 h and exposing the NSCLC cell lines to compound OBI-3424 for 72 h, the IC50 value was determined by ex vivo proliferation assay, and the expression of AKR1C3 protein in hepatocellular carcinoma cell lines was determined by Western blotting (tubulin was used as loading control). The expression data of AKR1C3 RNA in the hepatocellular carcinoma cell lines and in the NSCLC cell lines were from CrownBio database (https://db.crownbio.com/Crownbio/OncoExpress_Login.aspx).

[2] = system: SNU-475 hepatocellular carcinoma cell line; experiment: Ex vivo proliferation assay, 96 h exposure; format: cell-based; conditions: Homo sapiens; SNU-475, 96 h of exposure; AKR1C3 protein High; read-out: 3424 IC50
Experimental: as §2, §3

[3] = system: SK-HEP-1 hepatocellular carcinoma cell line; experiment: Ex vivo proliferation assay, 96 h exposure; format: cell-based; conditions: Homo sapiens, SK-HEP1; SK-HEP-1, 96 h of exposure; AKR1C3 protein Low; read-out: 3424 IC50
Experimental: as §2, §3

[4] = system: HLE hepatocellular carcinoma cell line; experiment: Ex vivo proliferation assay, 96 h exposure; format: cell-based; conditions: Homo sapiens, 96 h of exposure, AKR1C3 protein High, read-out: 3424 IC50
Experimental: as §2, §3

[5] = system: HLF hepatocellular carcinoma cell line; experiment: Ex vivo proliferation assay, 96 h exposure; format: cell-based; conditions: Homo sapiens, 96 h of exposure, AKR1C3 protein Low, read-out: 3424 IC50
Experimental: as §2, §3

[6] = system: SNU-449 hepatocellular carcinoma cell line; experiment: Ex vivo proliferation assay, 96 h exposure; format: cell-based; conditions: Homo sapiens; SNU-449, 96 h of exposure; AKR1C3 protein High; read-out: 3424 IC50
Experimental: as §2, §3

[7] = system: C3A hepatocellular carcinoma cell line; experiment: Ex vivo proliferation assay, 96 h exposure; format: cell-based; conditions: Homo sapiens, 96 h of exposure, AKR1C3 protein High, read-out: 3424 IC50
Experimental: as §2, §3

[8] = system: SNU-398 hepatocellular carcinoma cell line; experiment: Ex vivo proliferation assay, 96 h exposure; format: cell-based; conditions: Homo sapiens; SNU-398, 96 h of exposure; AKR1C3 protein Low; read-out: 3424 IC50
Experimental: as §2, §3

[9] = system: THP-1 hematological cancer cell line; experiment: Ex vivo proliferation assay, hematological cancer cell lines, 72 h; format: cell-based; conditions: Homo sapiens; Table 6: THP-1, 72 h of exposure
Experimental: as §2
(§4) After exposing the hematological cancer cell lines to compound OBI-3424 for 72 h, the IC50 value was determined by ex vivo proliferation assay. The expression data of AKR1C3 RNA in hematological cancer cell lines was from CrownBio database (https://db.crownbio.com/Crownbio/OncoExpress_Login.aspx).

[10] = system: Kasumi-1 hematological cancer cell line; experiment: as above; format: cell-based; conditions: Homo sapiens; Table 6: Kasumi-1, 72 h of exposure
Experimental: as §2, §4

[11] = system: cell lines derived from T-ALL with high AKR1C3 expression; experiment: Ex vivo cytotoxicity in leukemia cell lines (summary); format: cell-based, human
Experimental: as §1
In order to evaluate the potential anti-leukemia activity of OBI-3424, ex vivo cytotoxicity assays were performed on a variety of leukemia cell lines. […] The difference in IC50 values between cell lines with high/medium AKR1C3 expression and low expression was statistically significant (P=0.0016).

- pIC50 [1]: < 6.00
- pIC50 [2]: 7.82
- pIC50 [3]: < 6.00
- pIC50 [4]: 6.95
- pIC50 [5]: < 6.00
- pIC50 [6]: 7.35
- pIC50 [7]: 8.30
- pIC50 [8]: < 6.00
- pIC50 [9]: ≤ 6.00
- pIC50 [10]: ≤ 6.00
SMILES: C[C@H](OP(=O)(N1CC1)N1CC1)c1ccc([N+](=O)[O-])c(Oc2cccc(C(=O)N(C)C)c2)c1 [OBI-3424]
- pIC50 (ALL cell lines; 6 types of cell lines expressing high (strong) levels of AKR1C3): 7.52 to 8.52
- pIC50 (ALL cell lines; cell lines with medium AKR1C3 expression levels): 7.08 to 8.52
- IC50 values [11]: low nmol/L range
